Assay results as given in ChEMBL document CHEMBL5634089, “Design, synthesis and evaluation of 2-pyrimidinylindole derivatives as anti-obesity agents by regulating lipid metabolism” (Eur J Med Chem, 2023).
The source made the active and inactive calls. No cut-off for these calls is given here.

How the values were obtained:
[1] = test system: Mus musculus; test: Inhibition of lipid synthesis in high-fat and high-cholesterol diet induced C57BL/6J mouse assessed as downregulation of ACC protein expression at 20 mg/kg, ip administered for 6 weeks by Western blotting analysis; type: functional, organism-based
[2] = test system: Mus musculus; test: Anti-obesity activity in high-fat and high-cholesterol diet induced C57BL/6J mouse assessed as reduction in LDL-c level at 20 mg/kg, ip administered every day for 6 weeks; type: functional, organism-based
[3] = test system: 3T3-L1; test: Anti-adipogenic activity against mouse 3T3-L1 cells assessed as increase in Acsl1 mRNA expression at 0.2 to 0.8 uM incubated for 3 days by RT-PCR analysis; type: functional, cell-based; settings: dose 0.2-0.8 µM, time 3.0 day
[4] = test system: Mus musculus; test: Anti-obesity activity in high-fat and high-cholesterol diet induced C57BL/6J mouse assessed as attenuation of insulin resistance at 20 mg/kg, ip measured after 5 weeks by ITT analysis; type: functional, organism-based
[5] = test system: Mus musculus; test: Anti-obesity activity in high-fat and high-cholesterol diet induced C57BL/6J mouse assessed as reduction in liver damage by measuring reduction in LDH level in serum at 20 mg/kg, ip administered every day for 6 weeks; type: functional, organism-based
[6] = test system: Mus musculus; test: Anti-obesity activity in high-fat and high-cholesterol diet induced C57BL/6J mouse assessed as attenuation of hepatocyte ballooning at 20 mg/kg, ip administered every day for 6 weeks by […] staining based microscopic analysis; type: functional, organism-based
[7] = test system: 3T3-L1; test: Anti-adipogenic activity against mouse 3T3-L1 cells assessed as increase in Mcad mRNA expression at 0.2 to 0.8 uM incubated for 3 days by RT-PCR analysis; type: functional, cell-based; settings: dose 0.2-0.8 µM, time 3.0 day
[8] = test system: 3T3-L1; test: Anti-adipogenic activity against mouse 3T3-L1 cells assessed as decrease in C/EBP alpha mRNA expression at 0.2 to 0.8 uM incubated for 3 days by RT-PCR analysis; type: functional, cell-based; settings: dose 0.2-0.8 µM, time 3.0 day
[9] = test system: Mus musculus; test: Anti-obesity activity in high-fat and high-cholesterol diet induced C57BL/6J mouse assessed as reduction in liver damage by measuring reduction in alanine aminotransferase level in serum at 20 mg/kg, ip administered every day for 6 weeks; type: functional, organism-based
[10] = test system: 3T3-L1; test: Anti-adipogenic activity against mouse 3T3-L1 cells assessed as decrease in Fasn mRNA expression at 0.2 to 0.8 uM incubated for 3 days by RT-PCR analysis; type: functional, cell-based; settings: dose 0.2-0.8 µM, time 3.0 day
[11] = MRT (0 to t) in Sprague-Dawley rat at 20 mg/kg, po administered for 24 hrs by LC-MS/MS analysis; type: ADME, organism-based; settings: in vivo
[12] = test system: Adipocyte; test: Anti-adipogenic activity against mouse […] Adipocytes assessed as lipid-lowering activity by Oil Red O staining based microplate reader analysis; type: functional, cell-based
[13] = AUC (0 to infinity) in Sprague-Dawley rat at 2 mg/kg, iv administered for 24 hrs by LC-MS/MS analysis; type: ADME, organism-based; settings: in vivo
[14] = Half life in Sprague-Dawley rat at 2 mg/kg, iv administered for 24 hrs by LC-MS/MS analysis; type: ADME, organism-based; settings: in vivo
[15] = Apparent volume of distribution during terminal phase in Sprague-Dawley rat at 2 mg/kg, iv administered for 24 hrs by LC-MS/MS analysis; type: ADME, organism-based; settings: in vivo
[16] = test system: Mus musculus; test: Anti-obesity activity in high-fat and high-cholesterol diet induced C57BL/6J mouse assessed as reduction in fat mass at 20 mg/kg, ip administered every day for 6 weeks; type: functional, organism-based
[17] = test system: Mus musculus; test: Anti-obesity activity in high-fat and high-cholesterol diet induced C57BL/6J mouse assessed as attenuation of inflammation in liver at 20 mg/kg, ip administered everyday for 6 weeks by hematoxylin and eosin staining based microscopic analysis; type: functional, organism-based
[18] = test system: Mus musculus; test: Anti-obesity activity in high-fat and high-cholesterol diet induced C57BL/6J mouse assessed as reduction in liver damage by measuring reduction in alkaline phosphatase level in serum at 20 mg/kg, ip administered every day for 6 weeks; type: functional, organism-based
[19] = test system: 3T3-L1; test: Anti-adipogenic activity against mouse 3T3-L1 cells assessed as decrease in Elovl6 mRNA expression at 0.2 to 0.8 uM incubated for 3 days by RT-PCR analysis; type: functional, cell-based; settings: dose 0.2-0.8 µM, time 3.0 day
[20] = AUC (0 to t) in Sprague-Dawley rat at 2 mg/kg, iv administered for 24 hrs by LC-MS/MS analysis; type: ADME, organism-based; settings: in vivo
[21] = test system: 3T3-L1; test: Anti-adipogenic activity against mouse 3T3-L1 cells assessed as decrease in ATP citrate lyase mRNA expression at 0.2 to 0.8 uM incubated for 3 days by RT-PCR analysis; type: functional, cell-based; settings: dose 0.2-0.8 µM, time 3.0 day
[22] = test system: Mus musculus; test: Anti-obesity activity in high-fat and high-cholesterol diet induced C57BL/6J mouse assessed as reduction in serum glucose level at 20 mg/kg, ip measured after 3 weeks by GTT analysis; type: functional, organism-based
[23] = test system: 3T3-L1; test: Anti-adipogenic activity against mouse 3T3-L1 cells assessed as change in phosphorylated AMPK alpha level; type: functional, cell-based
[24] = test system: 3T3-L1; test: Anti-adipogenic activity against mouse 3T3-L1 cells assessed as decrease in Acc mRNA expression at 0.2 to 0.8 uM incubated for 3 days by RT-PCR analysis; type: functional, cell-based; settings: dose 0.2-0.8 µM, time 3.0 day
[25] = AUC (0 to infinity) in Sprague-Dawley rat at 20 mg/kg, po administered for 24 hrs by LC-MS/MS analysis; type: ADME, organism-based; settings: in vivo
[26] = test system: Mus musculus; test: Anti-obesity activity in high-fat and high-cholesterol diet induced C57BL/6J mouse model assessed as reduction in body weight at 20 mg/kg, ip administered every day for 6 weeks and measured daily relative to control; type: functional; design: scale not given: the % may be the effect or the level left
[27] = Oral bioavailability (0 to infinity) in Sprague-Dawley rat at 20 mg/kg administered for 24 hrs by LC-MS/MS analysis; type: ADME, organism-based; settings: in vivo
[28] = test system: 3T3-L1; test: Anti-adipogenic activity against mouse 3T3-L1 cells assessed as decrease in Scd1 mRNA expression at 0.2 to 0.8 uM incubated for 3 days by RT-PCR analysis; type: functional, cell-based; settings: dose 0.2-0.8 µM, time 3.0 day
[29] = test system: 3T3-L1; test: Anti-adipogenic activity in mouse 3T3-L1 cells assessed as lipid-lowering activity during the adipogenesis stage at 0.2 to 1.0 uM measured after 0 to 3 days; type: functional, cell-based; settings: dose 0.2-1 µM, time 0-3 day
[30] = test system: 3T3-L1; test: Anti-adipogenic activity in mouse 3T3-L1 cells assessed as lipid-lowering activity at 1 uM measured after 9 days by Oil Red O staining based microplate reader analysis relative to control; type: functional; settings: time 9 day
[31] = test system: Mus musculus; test: Anti-obesity activity in high-fat and high-cholesterol diet induced C57BL/6J mouse assessed as attenuation of fibrosis in liver at 20 mg/kg, ip administered every day for 6 weeks by Sirius red staining based microscopic analysis; type: functional, organism-based
[32] = Cytotoxicity against mouse 3T3-L1 cells assessed as reduction in cell viability incubated for 24 hrs by Sulforhodamine B assay; type: toxicity, cell-based
[33] = test system: Mus musculus; test: Inhibition of lipid synthesis in high-fat and high-cholesterol diet induced C57BL/6J mouse assessed as downregulation of FASN protein expression at 20 mg/kg, ip administered for 6 weeks by Western blotting analysis; type: functional, organism-based
[34] = test system: Mus musculus; test: Anti-obesity activity in high-fat and high-cholesterol diet induced C57BL/6J mouse assessed as reduction in total cholesterol level at 20 mg/kg, ip administered every day for 6 weeks; type: functional, organism-based
[35] = test system: Mus musculus; test: Anti-obesity activity in high-fat and high-cholesterol diet induced C57BL/6J mouse assessed as improvement in glucose tolerance at 20 mg/kg, ip measured after 3 weeks by GTT analysis; type: functional, organism-based
[36] = test system: Mus musculus; test: Anti-obesity activity in high-fat and high-cholesterol diet induced C57BL/6J mouse assessed as reduction in triglyceride level at 20 mg/kg, ip administered every day for 6 weeks; type: functional, organism-based

SMILES: CC(=O)c1c(-c2nccc(NCCN3CCCC3)n2)[nH]c2ccccc12
- inhibition [1]: Active
- Activity [2]: Active
- Activity [3]: Active
- Activity [4]: Active
- Activity [5]: Active
- Activity [6]: Active
- Activity [7]: Active
- Activity [8]: Active
- Activity [9]: Active
- Activity [10]: Active
- MRT last at 24 h [11]: 5.2 h
- EC50 [12]: 0.289 µM
- AUC(0-inf) [13]: 225 ng·h/mL
- half-life [14]: 1.9 h
- Vz/F [15]: 24.4 L/kg
- Activity [16]: Active
- Activity [17]: Active
- Activity [18]: Active
- Activity [19]: Active
- AUC(0-t) at 24 h [20]: 219 ng·h/mL
- Activity [21]: Active
- Activity [22]: Active
- Activity [23]: inactive
- Activity [24]: Active
- AUC(0-inf) [25]: 1470 ng·h/mL
- Activity [26]: 17.4%
- bioavailability [27]: 65.5%
- Activity [28]: Active
- Activity [29]: Active
- Activity [30]: 100.7%
- Activity [31]: Active
- IC50 at 24 h [32]: 27 µM
- inhibition [33]: Active
- Activity [34]: Active
- Activity [35]: Active
- Activity [36]: Active
